# Assay results taken from US5753617A, “Peptide inhibitors of cellular adhesion” (Centocor, Inc., priority 1995, dated 1998).
# Like-named read-outs stand apart in the source and are kept apart here. Where a SMILES comes first, the peptide text is derived from it. Bridges are numbered along the chain shown (N, C = ends). [ ]: non-standard residue; d: D form. Dap = NC[C@H](N)C(=O)O
# How the values were obtained:
# P-selectin = target: T1, P-selectin (Homo sapiens, UniProt P16109); test: Inhibition of human neutrophil adhesion to purified P-selectin immobilized on plastic wells; format: cell-based; conditions: for IC50: inhibiting the binding of human neutrophils to P-selectin; for biological activity / inhibiting neutrophil adhesion to P-selectin (result in words): human neutrophils, purified human P-selectin
# T1 construct: P-selectin is isolated from human platelet lysates; from tissue; host or cells: human platelets (outdated platelet packs from a blood bank)
# T1 sequence (P16109 42-830): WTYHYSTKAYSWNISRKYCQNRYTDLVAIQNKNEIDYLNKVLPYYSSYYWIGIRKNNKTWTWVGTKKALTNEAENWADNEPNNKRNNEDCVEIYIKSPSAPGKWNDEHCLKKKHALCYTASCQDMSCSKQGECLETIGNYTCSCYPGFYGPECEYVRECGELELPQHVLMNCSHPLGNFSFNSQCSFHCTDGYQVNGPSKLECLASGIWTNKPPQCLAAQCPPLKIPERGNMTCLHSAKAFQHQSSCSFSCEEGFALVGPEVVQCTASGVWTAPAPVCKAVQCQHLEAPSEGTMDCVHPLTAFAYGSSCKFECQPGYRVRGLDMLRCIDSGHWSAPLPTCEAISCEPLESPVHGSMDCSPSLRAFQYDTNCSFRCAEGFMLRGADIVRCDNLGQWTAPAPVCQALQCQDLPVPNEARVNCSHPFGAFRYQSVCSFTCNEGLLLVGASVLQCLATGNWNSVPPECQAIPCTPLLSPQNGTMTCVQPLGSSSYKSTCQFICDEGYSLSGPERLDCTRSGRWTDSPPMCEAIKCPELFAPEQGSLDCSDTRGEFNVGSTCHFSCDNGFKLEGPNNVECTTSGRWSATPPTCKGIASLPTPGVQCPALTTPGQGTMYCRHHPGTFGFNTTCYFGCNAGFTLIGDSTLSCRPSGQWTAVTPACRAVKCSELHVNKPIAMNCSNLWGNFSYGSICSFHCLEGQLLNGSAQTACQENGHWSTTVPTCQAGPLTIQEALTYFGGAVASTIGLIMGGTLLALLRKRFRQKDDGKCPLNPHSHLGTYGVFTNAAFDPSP
# Summary of the method: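 Isolated human neutrophils (2×10^5 per well) in HBSS with Ca2+/Mg2+ and HSA added to wells coated overnight at 4° C with platelet-derived P-selectin (5 micrograms/mL), HSA-blocked; 20 min at 22° C. Nonadherent cells removed by inverted centrifugation at 150 g; adherent cells quantified by myeloperoxidase activity.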
compound,measurement,setting,value
CC(C)[C@@H](NC(=O)[C@@H](Cc1c[nH]c2ccccc12)NC(=O)[C@H](NC(=O)[C@@H](Cc1c[nH]c2ccccc12)NC(=O)[C@H]1CSSC[C@@H](NC(=O)[C@@H](CCCCN)NC(=O)[C@H](N)CCCNC(=N)N)C(=O)NCC(=O)N[C@@H](Cc2ccccc2)C(=O)N1)[C@H](C)O)C(N)=O,"ring closure, yield of all isomers","from CC(C)[C@@H](NC(=O)[C@@H](Cc1c[nH]c2ccccc12)NC(=O)[C@H](NC(=O)[C@@H](Cc1c[nH]c2ccccc12)NC(=O)[C@@H](CS)NC(=O)[C@H](Cc1ccccc1)NC(=O)CNC(=O)[C@@H](CS)NC(=O)[C@@H](CCCCN)NC(=O)[C@H](N)CCCNC(=N)N)[C@H](C)O)C(N)=O, disulfide bond, DMSO, water, 0.253 mM, 16.0 h",10.8%
CC(C)[C@@H](NC(=O)[C@@H](Cc1c[nH]c2ccccc12)NC(=O)[C@H](NC(=O)[C@@H](Cc1c[nH]c2ccccc12)NC(=O)[C@H]1CSSC[C@@H](NC(=O)[C@@H](CCCCN)NC(=O)[C@H](N)CCCNC(=N)N)C(=O)NCCC(=O)N[C@@H](Cc2ccccc2)C(=O)N1)[C@H](C)O)C(N)=O,"ring closure, yield of all isomers","from CC(C)[C@@H](NC(=O)[C@@H](Cc1c[nH]c2ccccc12)NC(=O)[C@H](NC(=O)[C@@H](Cc1c[nH]c2ccccc12)NC(=O)[C@@H](CS)NC(=O)[C@H](Cc1ccccc1)NC(=O)CCNC(=O)[C@@H](CS)NC(=O)[C@@H](CCCCN)NC(=O)[C@H](N)CCCNC(=N)N)[C@H](C)O)C(N)=O, disulfide bond, air, Cu wire, ammonium acetate pH 8.5, water, 0.842 mM, 22.0 h",8.1%
CC(C)[C@H](NC(=O)[C@@H](Cc1c[nH]c2ccccc12)NC(=O)[C@H](NC(=O)[C@@H](Cc1c[nH]c2ccccc12)NC(=O)[C@H]1CSSC[C@@H](NC(=O)[C@@H](CCCCN)NC(=O)[C@H](N)CCCNC(=N)N)C(=O)NCC(=O)N[C@@H](Cc2ccccc2)C(=O)N1)[C@H](C)O)C(N)=O,"ring closure, yield of all isomers","from CC(C)[C@H](NC(=O)[C@@H](Cc1c[nH]c2ccccc12)NC(=O)[C@H](NC(=O)[C@@H](Cc1c[nH]c2ccccc12)NC(=O)[C@@H](CS)NC(=O)[C@H](Cc1ccccc1)NC(=O)CNC(=O)[C@@H](CS)NC(=O)[C@@H](CCCCN)NC(=O)[C@H](N)CCCNC(=N)N)[C@H](C)O)C(N)=O, disulfide bond, DMSO, water, 0.161 mM",9.4%
CC(C)[C@H](NC(=O)[C@H](Cc1c[nH]c2ccccc12)NC(=O)[C@@H](NC(=O)[C@H](Cc1c[nH]c2ccccc12)NC(=O)[C@@H]1CC(=O)NC[C@H](NC(=O)[C@H](CCCCN)NC(=O)[C@@H](N)CCCNC(=N)N)C(=O)NCC(=O)NCC(=O)N1)[C@@H](C)O)C(N)=O,"ring closure, yield of all isomers","amide bond, BOP/HOBt/DIEA, NMP, 80.0 h, 9 steps",8.5%
CC[C@@H](C)[C@H]1NC(=O)[C@H](NC(=O)[C@H](N)CCCNC(=N)N)CSSC[C@H](C(=O)N[C@@H](C(=O)N[C@H](Cc2c[nH]c3ccccc23)C(=O)N[C@@H](C(=O)N[C@H](Cc2c[nH]c3ccccc23)C(=O)N[C@@H](C(N)=O)C(C)C)[C@H](C)O)[C@H](C)CC)NC(=O)CNC1=O [(4)] (H-[dR][dC][dI]G[dC][dI][dW][dT][dW][dV]-NH2; disulfide 2-5),"ring closure, yield of all isomers","from CC[C@@H](C)[C@@H](NC(=O)[C@@H](CS)NC(=O)[C@H](N)CCCNC(=N)N)C(=O)NCC(=O)N[C@H](CS)C(=O)N[C@@H](C(=O)N[C@H](Cc1c[nH]c2ccccc12)C(=O)N[C@@H](C(=O)N[C@H](Cc1c[nH]c2ccccc12)C(=O)N[C@@H](C(N)=O)C(C)C)[C@H](C)O)[C@H](C)CC, disulfide bond, DMSO, water, 0.405 mM, 16.0 h",43.1%
same,IC50,P-selectin,41 µM
CC(C)[C@H](NC(=O)[C@H](Cc1c[nH]c2ccccc12)NC(=O)[C@@H](NC(=O)[C@H](Cc1c[nH]c2ccccc12)NC(=O)[C@@H]1CSSC[C@H](NC(=O)[C@H](CCCCN)NC(=O)[C@@H](N)CCCNC(=N)N)C(=O)NCC(=O)NCC(=O)N1)[C@@H](C)O)C(N)=O [(9)] (H-RKCGGCWTWV-NH2; disulfide 3-6),"ring closure, yield of all isomers","from CC(C)[C@H](NC(=O)[C@H](Cc1c[nH]c2ccccc12)NC(=O)[C@@H](NC(=O)[C@H](Cc1c[nH]c2ccccc12)NC(=O)[C@H](CS)NC(=O)CNC(=O)CNC(=O)[C@H](CS)NC(=O)[C@H](CCCCN)NC(=O)[C@@H](N)CCCNC(=N)N)[C@@H](C)O)C(N)=O, disulfide bond, DMSO, water, 0.456 mM, 16.0 h",4.4%
same,IC50,P-selectin,3 µM
CC(C)[C@@H](NC(=O)[C@@H](Cc1c[nH]c2ccccc12)NC(=O)[C@H](NC(=O)[C@@H](Cc1c[nH]c2ccccc12)NC(=O)[C@H]1CSSC[C@@H](NC(=O)[C@@H](CCCCN)NC(=O)[C@H](N)CCCNC(=N)N)C(=O)N[C@H](C)C(=O)N[C@@H](Cc2ccccc2)C(=O)N1)[C@H](C)O)C(N)=O [(11)] (H-[dR][dK][dC][dA]F[dC][dW][dT][dW][dV]-NH2; disulfide 3-6),"ring closure, yield of all isomers","from CC(C)[C@@H](NC(=O)[C@@H](Cc1c[nH]c2ccccc12)NC(=O)[C@H](NC(=O)[C@@H](Cc1c[nH]c2ccccc12)NC(=O)[C@@H](CS)NC(=O)[C@H](Cc1ccccc1)NC(=O)[C@@H](C)NC(=O)[C@@H](CS)NC(=O)[C@@H](CCCCN)NC(=O)[C@H](N)CCCNC(=N)N)[C@H](C)O)C(N)=O, disulfide bond, air, Cu wire, dilute AcOH/NH4OH pH 8.5, water, 3.08 mM",2.4%
same,IC50,P-selectin,7 µM
CC(C)[C@@H](NC(=O)[C@@H](Cc1c[nH]c2ccccc12)NC(=O)[C@H](NC(=O)[C@@H](Cc1c[nH]c2ccccc12)NC(=O)[C@H]1CSSC[C@@H](NC(=O)[C@@H](CCCCN)NC(=O)[C@H](N)CCCNC(=N)N)C(=O)N[C@H](Cc2ccccc2)C(=O)NCC(=O)N1)[C@H](C)O)C(N)=O [(12)] (H-[dR][dK][dC][dF]G[dC][dW][dT][dW][dV]-NH2; disulfide 3-6),"ring closure, yield of all isomers","from CC(C)[C@@H](NC(=O)[C@@H](Cc1c[nH]c2ccccc12)NC(=O)[C@H](NC(=O)[C@@H](Cc1c[nH]c2ccccc12)NC(=O)[C@@H](CS)NC(=O)CNC(=O)[C@@H](Cc1ccccc1)NC(=O)[C@@H](CS)NC(=O)[C@@H](CCCCN)NC(=O)[C@H](N)CCCNC(=N)N)[C@H](C)O)C(N)=O, disulfide bond, DMSO, water, 0.255 mM, 16.0 h",18.7%
same,IC50,P-selectin,48 µM
CC(C)[C@@H](NC(=O)[C@@H](Cc1c[nH]c2ccccc12)NC(=O)[C@H](NC(=O)[C@@H](Cc1c[nH]c2ccccc12)NC(=O)[C@H]1CSSC[C@@H](NC(=O)[C@@H](CCCCN)NC(=O)[C@H](N)CCCNC(=N)N)C(=O)NCC(=O)N[C@H](Cc2ccccc2)C(=O)N1)[C@H](C)O)C(N)=O [(13)] (H-[dR][dK][dC]G[dF][dC][dW][dT][dW][dV]-NH2; disulfide 3-6),"ring closure, yield of all isomers","from CC(C)[C@@H](NC(=O)[C@@H](Cc1c[nH]c2ccccc12)NC(=O)[C@H](NC(=O)[C@@H](Cc1c[nH]c2ccccc12)NC(=O)[C@@H](CS)NC(=O)[C@@H](Cc1ccccc1)NC(=O)CNC(=O)[C@@H](CS)NC(=O)[C@@H](CCCCN)NC(=O)[C@H](N)CCCNC(=N)N)[C@H](C)O)C(N)=O, disulfide bond, DMSO, water, 0.242 mM, 16.0 h",10.7%
same,IC50,P-selectin,50 µM
"CC(C)[C@H](NC(=O)[C@H](Cc1c[nH]c2ccccc12)NC(=O)[C@@H](NC(=O)[C@H](Cc1c[nH]c2ccccc12)NC(=O)[C@@H]1CC(=O)NC[C@H](NC(=O)[C@H](CCCCN)NC(=O)[C@@H](N)CCCNC(=N)N)C(=O)NCC(=O)NCC(=O)N1)[C@@H](C)O)C(N)=O [Preferred peptide (22), Arginyl-lysyl-cyclo(diaminopropionyl-glycyl-glycyl-aspartyl)-tryptophyl-threonyl-tryptophyl-valine-amide] (H-RK[Dap]GGDWTWV-NH2; lactam 3-6)",concentration at which active in inhibiting neutrophil adhesion to P-selectin,P-selectin; stated in text as 'active at',13 mM
"CC[C@H](C)[C@H](NC(=O)[C@H](CCCCN)NC(=O)[C@@H](N)CCCNC(=N)N)C(=O)NCC(=O)NCC(=O)N[C@H]1CCCCNC(=O)CC[C@@H](C(N)=O)NC(=O)[C@H](Cc2c[nH]c3ccccc23)NC(=O)[C@H]([C@@H](C)O)NC(=O)[C@H](Cc2c[nH]c3ccccc23)NC1=O [SEQ ID NO:1, Arg-Lys-Ile-Gly-Gly-cyclo(Lys-Trp-Thr-Trp-Glu)-NH2] (H-RKIGGKWTWE-NH2; lactam 6-10)",biological activity / inhibiting neutrophil adhesion to P-selectin (result in words),P-selectin,inactive
"CC[C@H](C)[C@H](NC(=O)[C@H](CCCCN)NC(=O)[C@@H](N)CCCNC(=N)N)C(=O)NCC(=O)NCC(=O)N[C@H]1CCC(=O)NCCCC[C@@H](C(N)=O)NC(=O)[C@H](Cc2c[nH]c3ccccc23)NC(=O)[C@H]([C@@H](C)O)NC(=O)[C@H](Cc2c[nH]c3ccccc23)NC1=O [SEQ ID NO:2, Arg-Lys-Ile-Gly-Gly-cyclo(Glu-Trp-Thr-Trp-Lys)-NH2] (H-RKIGGEWTWK-NH2; lactam 6-10)",biological activity / inhibiting neutrophil adhesion to P-selectin (result in words),P-selectin,inactive
"CC(C)[C@H](NC(=O)[C@H](Cc1c[nH]c2ccccc12)NC(=O)[C@@H](NC(=O)[C@H](Cc1c[nH]c2ccccc12)NC(=O)[C@@H]1CNC(=O)C[C@H](NC(=O)[C@H](CCCCN)NC(=O)[C@@H](N)CCCNC(=N)N)C(=O)NCC(=O)NCC(=O)N1)[C@@H](C)O)C(N)=O [SEQ ID NO:3, Arg-Lys-cyclo(Asp-Gly-Gly-Dap)-Trp-Thr-Trp-Val-NH2] (H-RKDGG[Dap]WTWV-NH2; lactam 3-6)",biological activity / inhibiting neutrophil adhesion to P-selectin (result in words),P-selectin,totally inactive
